According to patent publication US8044035B2, “Pharmaceutical compositions of pyrimidine-2,4,6-triones” (priority 2004, dated 2011):
Where two headings read alike, the source gives them in different places.

Legend:
[1] = Differential solubility in acetonitrile of free and complexed compound I; format: physicochemical
Excerpt: Compound I has different solubility when it is in the complex form or not. […] In these conditions the included drug remains trapped and becomes insoluble in the solvent. This technique of differential solubility between compound I in the free or in the complexed form can be applied to evaluate the percentage of complexation.

[2] = Solubility of various trioxopyrimidines in the presence of HPβCD; format: physicochemical; details: HPβCD solution, 37 °C, aqueous with cosolvent or surfactant or cyclodextrin, thermodynamic from solid, read-out: Concentration (solubility)
Protocol: 1.1 Weigh 20 mg of compound I. Add 2 ml of solution of HPβCD 200 mM. Stir for 24 h at 37° C. Filter in Millipore filter Millex HV 0.45 μm. The solution obtained after filtration contains the complex compound I-CD in solution.
1.2. Weigh 2.5 mg of compound I. Add 2 ml of solution of HPβCD 200 mM. Stir at 37° C. for 24 h or until compound I is completely dissolved. The solution obtained in this way contains the complex compound I-CD.
At the time of a complex formation, compound I, practically insoluble in water (<0.6 μg/ml, MW: 485), solubilizes dramatically. The increase in the solubility of compound I is thus proof of a complex formation between Compound I and the CD. Complex formation and achievement of the equilibrium is found at 20% after 1 day, 40% after 4 days, and 100% after 7 days. The solubility diagrams (FIG. 1) are carried out by adding an excess of compound I to the CD solutions of increasing concentration. After 7 days of stirring in thermostatically controlled baths at 37° C., these solutions are filtered and the solubilized compound I quantity is dosed by HPLC. The βCD and the γCD as well as their synthetic derivatives have allowed complexes with compound I to be formed. The β-CD and the HPβCD come from ROQUETTE (France), the RMβCD and the γCD have been supplied by Wacker (Germany).
The flasks containing compound I and the cyclodextrins are placed being stirred in thermostatically controlled baths at 37° C. for 7 days, so that the complexation balance is reached. After this time, the suspensions are filtered with the help of a milli-pore filter 0.22 μm in PVDF and the filtrate is dissolved in DMSO in the mobile phase to obtain concentration samples situating themselves on the calibrating line. They are then dosed thanks to the validated HPLC method, described below.
Solubility is investigated according to Examples 1 and 2.

Row | Molecule | Solubility in acetonitrile [1] | solubility ([2]; HPβCD 10 mM) [µg/mL] | solubility ([2]; HPβCD 25 mM) [µg/mL] | solubility ([2]; HPβCD 50 mM) [µg/mL] | solubility ([2]; HPβCD 100 mM) [µg/mL] | solubility ([2]; HPβCD 200 mM) [µg/mL]
1 | Hydroxypropyl β-cyclodextrin [HP-β-CD] | insoluble | – | – | – | – | –
2 | O=C1NC(=O)C(c2ccc(Oc3ccccc3)cc2)(N2CCN(c3ncccn3)CC2)C(=O)N1 [Compound II, 5-(4-Phenoxy-phenyl)-5-(4-pyrimidin-2-yl-piperazin-1-yl)-pyrimidine-2,4,6-trione] | – | 1300 | 3400 | 3800 | 5900 | 9300
3 | O=C1NC(=O)C(c2ccc(Oc3ccc(Cl)c(Cl)c3)cc2)(N2CCN(c3ncccn3)CC2)C(=O)N1 [Compound IV, 5-[4-(3,4-Dichloro-phenoxy)-phenyl]-5-(4-pyrimidin-2-yl-piperazin-1-yl)-pyrimidine-2,4,6-trione] | – | 100 | 200 | 900 | 2700 | 7900
4 | O=C1NC(=O)C(c2ccc(Oc3ccc(Br)cc3)cc2)(N2CCN(c3ncccn3)CC2)C(=O)N1 [Compound V, 5-[4-(4-Bromo-phenoxy)-phenyl]-5-(4-pyrimidin-2-yl-piperazin-1-yl)-pyrimidine-2,4,6-trione] | – | 800 | 2400 | 5400 | 6600 | 9900
5 | O=C1NC(=O)C(c2ccc(Oc3ccc(Cl)cc3)cc2)(N2CCN(c3ncccn3)CC2)C(=O)N1 [Compound III, 5-[4-(4-Chloro-phenoxy)-phenyl]-5-(4-pyrimidin-2-yl-piperazin-1-yl)-pyrimidine-2,4,6-trione] | – | 800 | 2400 | 3100 | 6100 | 9500
